Laboratory results published in US20210395239A1 (Hoffmann-La Roche Inc., priority 2018, published 2021).

biological target: T1, human TLR8 (Homo sapiens, UniProt Q9NR97); experiment: HEK293-Blue-hTLR-8 cells assay (SEAP reporter, R848 stimulation); format: cell-based; settings: HEK293-Blue-hTLR8 cells, R848, 20 hrs; read-out: HEK/hTLR8 IC50
T1 construct: host or cells: HEK293 (HEK-Blue hTLR8)
T1 sequence (Q9NR97 27-1041): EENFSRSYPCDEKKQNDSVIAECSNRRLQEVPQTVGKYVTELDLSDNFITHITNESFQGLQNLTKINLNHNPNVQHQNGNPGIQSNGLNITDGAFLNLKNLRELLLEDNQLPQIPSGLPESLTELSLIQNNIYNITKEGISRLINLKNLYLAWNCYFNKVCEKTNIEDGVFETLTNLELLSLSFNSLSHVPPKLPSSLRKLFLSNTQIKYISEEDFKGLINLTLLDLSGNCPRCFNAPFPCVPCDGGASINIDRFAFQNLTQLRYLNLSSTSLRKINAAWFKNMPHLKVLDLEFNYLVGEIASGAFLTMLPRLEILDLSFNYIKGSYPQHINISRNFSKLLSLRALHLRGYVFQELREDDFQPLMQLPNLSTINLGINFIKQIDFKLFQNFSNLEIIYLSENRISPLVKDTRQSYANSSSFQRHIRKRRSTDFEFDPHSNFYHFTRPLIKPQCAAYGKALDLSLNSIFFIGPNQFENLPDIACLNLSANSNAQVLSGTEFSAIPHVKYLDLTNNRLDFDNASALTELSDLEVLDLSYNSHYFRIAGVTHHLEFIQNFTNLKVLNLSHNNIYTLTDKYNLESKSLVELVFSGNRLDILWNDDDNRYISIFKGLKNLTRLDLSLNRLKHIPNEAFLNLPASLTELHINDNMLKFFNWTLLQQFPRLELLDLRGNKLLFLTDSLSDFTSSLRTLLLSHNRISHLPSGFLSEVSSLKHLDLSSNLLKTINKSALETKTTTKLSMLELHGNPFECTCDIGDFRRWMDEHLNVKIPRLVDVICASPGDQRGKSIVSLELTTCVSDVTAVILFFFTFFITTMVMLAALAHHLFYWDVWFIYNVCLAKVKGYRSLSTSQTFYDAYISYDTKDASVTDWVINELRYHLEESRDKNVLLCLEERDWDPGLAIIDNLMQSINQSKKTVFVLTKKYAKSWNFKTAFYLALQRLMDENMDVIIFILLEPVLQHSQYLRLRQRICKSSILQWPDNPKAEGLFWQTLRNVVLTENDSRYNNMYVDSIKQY
Description: HEK293-Blue-hTLR-8 Cells Assay:
A stable HEK293-Blue-hTLR-8 cell line was purchased from InvivoGen (Cat. #: hkb-ht1r8, San Diego, Calif., USA). These cells were originally designed for studying the stimulation of human TLR8 by monitoring the activation of NF-κB. A SEAP (secreted embryonic alkaline phosphatase) reporter gene was placed under the control of the IFN-β minimal promoter fused to five NF-κB and AP-1-binding sites. The SEAP was induced by activating NF-κB and AP-1 via stimulating HEK-Blue hTLR8 cells with TLR8 ligands. Therefore the reporter expression was declined by TLR8 antagonist under the stimulation of a ligand, such as R848, for incubation of 20 hrs. The cell culture supernatant SEAP reporter activity was determined using QUANTI-Blue™ kit (Cat. #: rep-qb1, Invivogen, San Diego, Ca, USA) at a wavelength of 640 nm, a detection medium that turns purple or blue in the presence of alkaline phosphatase.
HEK293-Blue-hTLR8 cells were incubated at a density of 250,000˜450,000 cells/mL in a volume of 170 μL in a 96-well plate in Dulbecco's Modified Eagle's medium (DMEM) containing 4.5 g/L glucose, 50 U/mL penicillin, […], […], 2 mM L-glutamine, 10% (v/v) heat-inactivated fetal bovine serum with addition of 20 μL test compound in a serial dilution in the presence of final DMSO at 1% and 10 μL of 60 uM R848 in above DMEM, perform incubation under 37° C. in a CO2 incubator for 20 hrs. Then 20 μL of the supernatant from each well was incubated with 180 μL Quanti-blue substrate solution at 37° C. for 2 hrs and the absorbance was read at 620˜655 nm using a spectrophotometer. The signaling pathway that TLR8 activation leads to downstream NF-κB activation has been widely accepted, and therefore similar reporter assay was modified for evaluating TLR8 antagonist.

Q: Which IC50 does the source give for [2H]c1nc2c(C#N)ccc(N3C[C@H](CN4CCN(c5nc(C)cc(N6CC(N)C6)n5)CC4)O[C@H](C)C3)c2nc1[2H] [Example 124, 8-[(2S,6R)-2-[[4-[4-(3-aminoazetidin-1-yl)-6-methyl-pyrimidin-2-yl]piperazin-1-yl]methyl]-6-methyl-morpholin-4-yl]-2,3-dideuterio-quinoxaline-5-carbonitrile] here?
A: Its IC50 is 1 nM.

Q: With Cc1cc(N2C[C@@H](N)[C@](C)(O)C2)nc(N2CCN(C[C@H]3CN(c4ccc(C#N)c5nccnc45)C[C@@H](C)O3)CC2)n1 [Example 125, 8-[(2S,6R)-2-[[4-[4-[(3R,4R)-4-amino-3-hydroxy-3-methyl-pyrrolidin-1-yl]-6-methyl-pyrimidin-2-yl]piperazin-1-yl]methyl]-6-methyl-morpholin-4-yl]quinoxaline-5-carbonitrile] as the compound, how does the IC50 read?
A: Its IC50 is 2 nM.

Q: With Cc1ccc(N2C[C@H](CN3CCN(c4ccnc(N5CC6(CNCCO6)C5)n4)CC3)O[C@H](C)C2)c2nccnc12 [Example 126, 2-[4-[4-[[(2S,6R)-6-methyl-4-(8-methylquinoxalin-5-yl)morpholin-2-yl]methyl]piperazin-1-yl]pyrimidin-2-yl]-5-oxa-2,8-diazaspiro[3.5]nonane] as the compound, how does the IC50 read?
A: The IC50 was 6 nM.

Q: For Cc1ccc(N2C[C@H](CN3CCN(c4ccnc(N5CCN[C@@H](C)C5)n4)CC3)O[C@H](C)C2)c2nccnc12 [Example 127, (2R,6S)-2-methyl-6-[[4-[2-[(3S)-3-methylpiperazin-1-yl]pyrimidin-4-yl]piperazin-1-yl]methyl]-4-(8-methylquinoxalin-5-yl)morpholine], which IC50 is on record?
A: The IC50 was 9 nM.

Q: Cc1ccc(N2C[C@H](CN3CCN(c4ccnc(N5CCN[C@H](C)C5)n4)CC3)O[C@H](C)C2)c2nccnc12 [Example 128, (2R,6S)-2-methyl-6-[[4-[2-[(3R)-3-methylpiperazin-1-yl]pyrimidin-4-yl]piperazin-1-yl]methyl]-4-(8-methylquinoxalin-5-yl)morpholine] was tested. Which IC50 did it give?
A: Its IC50 is 12 nM.

Q: How did the IC50 turn out when Cc1ccc(N2C[C@H](CN3CCN(c4ccnc(N5C[C@H]6NCCO[C@@H]6C5)n4)CC3)O[C@H](C)C2)c2nccnc12 [Example 129, (4aR,7aR)-6-[4-[4-[[(2S,6R)-6-methyl-4-(8-methylquinoxalin-5-yl)morpholin-2-yl]methyl]piperazin-1-yl]pyrimidin-2-yl]-3,4,4a,5,7,7a-hexahydro-2H-pyrrolo[3,4-b][1,4]oxazine] was run?
A: The IC50 was 7 nM.

Q: How did the IC50 turn out when Cc1ccc(N2C[C@H](CN3CCN(c4ccnc(N5CC(N)C5)n4)CC3)O[C@H](C)C2)c2nccnc12 [Example 130, 1-[4-[4-[[(2S,6R)-6-methyl-4-(8-methylquinoxalin-5-yl)morpholin-2-yl]methyl]piperazin-1-yl]pyrimidin-2-yl]azetidin-3-amine] was run?
A: Its IC50 is 8 nM.

Q: For [2H]c1ccc2c(N3C[C@H](CN4CCN(c5nc(OC)cc(N6CC(C)(N)C6)n5)CC4)O[C@H](C)C3)ccc(C#N)c2n1 [Example 131, 5-[(2S,6R)-2-[[4-[4-(3-amino-3-methyl-azetidin-1-yl)-6-methoxy-pyrimidin-2-yl]piperazin-1-yl]methyl]-6-methyl-morpholin-4-yl]-2-deuterio-quinoline-8-carbonitrile], which IC50 is on record?
A: Its IC50 is 4 nM.

Q: Which IC50 does the source give for [2H]c1ccc2c(N3C[C@H](CN4CCN(c5ccc(N6CC(C)(N)C6)nc5)CC4)O[C@H](C)C3)ccc(C#N)c2n1 [Example 132, 5-[(2S,6R)-2-[[4-[6-(3-amino-3-methyl-azetidin-1-yl)-3-pyridyl]piperazin-1-yl]methyl]-6-methyl-morpholin-4-yl]-2-deuterio-quinoline-8-carbonitrile] here?
A: The IC50 was 16 nM.

Q: For [2H]c1ccc2c(N3C[C@H](CN4CCN(c5cnc(N6CC(C)(N)C6)cc5C)CC4)O[C@H](C)C3)ccc(C#N)c2n1 [Example 133, 5-[(2S,6R)-2-[[4-[6-(3-amino-3-methyl-azetidin-1-yl)-4-methyl-3-pyridyl]piperazin-1-yl]methyl]-6-methyl-morpholin-4-yl]-2-deuterio-quinoline-8-carbonitrile], which IC50 is on record?
A: The IC50 was 17 nM.

Q: [2H]c1ccc2c(N3C[C@H](CN4CCN(c5nc(C)cc(N6C[C@H](OC)[C@@H](N)C6)n5)CC4)O[C@H](C)C3)ccc(C#N)c2n1 [Example 134, 5-[(2S,6R)-2-[[4-[4-[(3S,4S)-3-amino-4-methoxy-pyrrolidin-1-yl]-6-methyl-pyrimidin-2-yl]piperazin-1-yl]methyl]-6-methyl-morpholin-4-yl]-2-deuterio-quinoline-8-carbonitrile] was tested. Which IC50 did it give?
A: Its IC50 is 1 nM.

Q: Which IC50 does the source give for [2H]c1ccc2c(N3C[C@H](CN4CCN(c5nc(C)cc(N6CC(C)(N)C6)n5)CC4)O[C@H](C)C3)ccc(C#N)c2n1 [Example 135, 5-[(2S,6R)-2-[[4-[4-(3-amino-3-methyl-azetidin-1-yl)-6-methyl-pyrimidin-2-yl]piperazin-1-yl]methyl]-6-methyl-morpholin-4-yl]-2-deuterio-quinoline-8-carbonitrile] here?
A: The IC50 was 1 nM.

Q: With [2H]c1ccc2c(N3C[C@H](CN4CCN(c5nc(C)cc(N6CC(N)C6)n5)CC4)O[C@H](C)C3)ccc(C#N)c2n1 [Example 136, 5-[(2S,6R)-2-[[4-[4-(3-aminoazetidin-1-yl)-6-methyl-pyrimidin-2-yl]piperazin-1-yl]methyl]-6-methyl-morpholin-4-yl]-2-deuterio-quinoline-8-carbonitrile] as the compound, how does the IC50 read?
A: Its IC50 is 1 nM.

Q: [2H]c1ccc2c(N3C[C@H](CN4CCN(c5ccc(N6CC(C)(N)C6)nc5C)CC4)O[C@H](C)C3)ccc(C#N)c2n1 [Example 137, 5-[(2S,6R)-2-[[4-[6-(3-amino-3-methyl-azetidin-1-yl)-2-methyl-3-pyridyl]piperazin-1-yl]methyl]-6-methyl-morpholin-4-yl]-2-deuterio-quinoline-8-carbonitrile] was tested. Which IC50 did it give?
A: The IC50 was 11 nM.

Q: For [2H]c1ccc2c(N3C[C@H](CN4CC(c5ccc(N6CC(C)(N)C6)nc5)C4)O[C@H](C)C3)ccc(C#N)c2n1 [Example 138, 5-[(2S,6R)-2-[[3-[6-(3-amino-3-methyl-azetidin-1-yl)-3-pyridyl]azetidin-1-yl]methyl]-6-methyl-morpholin-4-yl]-2-deuterio-quinoline-8-carbonitrile], which IC50 is on record?
A: Its IC50 is 19 nM.

Q: Which IC50 does the source give for [2H]c1ccc2c(N3C[C@H](CN4CCN(c5ncc(N6CC(C)(N)C6)cc5C)CC4)O[C@H](C)C3)ccc(C#N)c2n1 [Example 139, 5-[(2S,6R)-2-[[4-[5-(3-amino-3-methyl-azetidin-1-yl)-3-methyl-2-pyridyl]piperazin-1-yl]methyl]-6-methyl-morpholin-4-yl]-2-deuterio-quinoline-8-carbonitrile] here?
A: The IC50 was 13 nM.

Q: How did the IC50 turn out when [2H]c1ccc2c(N3C[C@H](CN4CC(c5ccc(N6C[C@H](OC)[C@@H](N)C6)cc5)C4)O[C@H](C)C3)ccc(C#N)c2n1 [Example 140, 5-[(2S,6R)-2-[[3-[4-[(3S,4S)-3-amino-4-methoxy-pyrrolidin-1-yl]phenyl]azetidin-1-yl]methyl]-6-methyl-morpholin-4-yl]-2-deuterio-quinoline-8-carbonitrile] was run?
A: The IC50 was 25 nM.

Q: Which IC50 does the source give for [2H]c1ccc2c(N3C[C@H](CN4CC(c5ccc(N6CC(C)(N)C6)cc5)C4)O[C@H](C)C3)ccc(C#N)c2n1 [Example 141, 5-[(2S,6R)-2-[[3-[4-(3-amino-3-methyl-azetidin-1-yl)phenyl]azetidin-1-yl]methyl]-6-methyl-morpholin-4-yl]-2-deuterio-quinoline-8-carbonitrile] here?
A: The IC50 was 9 nM.
